Assay results published in US20230270749A1, “THERMO-SENSITIVE PERMEATION ENHANCING FORMULATIONS FOR DRUG DELIVERY” (Children's Medical Center Corporation, priority 2020, published 2023).

Tests used:
[1] = Solubility / dissolution in poloxamer-CPE formulations; assay type: physicochemical
[2] = system: H. influenza; settings: stated without test or source; cited from earlier work
[3] = assay type: in vivo, chinchilla; settings: healthy / OM infected chinchillas
Procedure: Histopathology. Hydrogel formulations were administered onto the tympanic membrane of live healthy/OM chinchillas. After 7 days later, they were euthanized as described elsewhere. The TMs were then excised and immediately fixed in 10% neutral buffered formalin overnight. The sectioned TMs (˜10 μm thick) were stained with hematoxylin and eosin, and evaluated by light microscopy in a blinded fashion.

[4] = system: S. pneumoniae; settings: stated without test or source; cited from earlier work
[5] = Systemic exposure: ciprofloxacin in plasma after gel application; assay type: in vivo, chinchilla; settings: after hydrogel treatment
Procedure: The blood levels of Cip were investigated by collection of plasma samples at predetermined intervals from the transverse sinuses of chinchillas after hydrogel treatment.
NTHi OM chinchilla model and pharmacokinetics. All procedures and manipulations were performed using sedation analgesia under isoflurane chamber induction followed by mask inhalation of 1-3% isoflurane in accordance with approved IACUC protocols at Boston Children's Hospital. […] Isolates of NTHi grown to the mid-log phase were diluted in Hanks' balanced salt solution (HBSS), and about 25 to 75 CFU in […] were directly introduced into each middle ear through the dorsal aspect of the tympanic bullae under aseptic conditions. […] Serial plasma samples were also obtained through the […] during the experiment to determine systemic drug levels.

| Compound | highest amount of CTX that can be dissolved in the P188-CPEs formulation while maintaining the desired rheological properties [1] [%] | highest amount of CTX that can be dissolved in the P188-CPEs formulation as a powder form within a short time (<1 minute) ([1]; powder form, <1 minute) [%] | minimum inhibitory concentration for middle ear infections [2] | appearance of H&E-stained TM sections after 7 days [3] | minimum inhibitory concentration for middle ear infections [4] | ciprofloxacin in the bloodstream at any time point throughout the course of treatment [5] | ciprofloxacin in the bloodstream at any time point throughout the course of treatment ([5]; listed as Cip) |
| --- | --- | --- | --- | --- | --- | --- | --- |
| CO/N=C(\C(=O)N[C@@H]1C(=O)N2C(C(=O)O)=C(CSc3nc(=O)c(=O)[nH]n3C)CS[C@H]12)c1csc(N)n1 [CTX, ceftriaxone sodium] | 42.6 | 28 | – | – | – | – | – |
| O=C(O)c1cn(C2CC2)c2cc(N3CCNCC3)c(F)cc2c1=O [ciprofloxacin] | – | – | about 4 μg/mL | much thicker than healthy TM | about 4 μg/mL | no Ciprofloxacin was detectable | no Cip was detectable |
